Earlier results in US7709647B2, “Tetrahydroquinoline cannabinoid receptor modulators” (Bristol-Myers Squibb Company, priority 2005, dated 2010).

Assays:
[1] = chronic administration for two weeks
human subjects = conditions: 16 week trial period, published Phase IIb data

| Compound | body weight [1] | body weight (human subjects) |
| --- | --- | --- |
| Cc1c(C(=O)NN2CCCCC2)nn(-c2ccc(Cl)cc2Cl)c1-c1ccc(I)cc1 [AM-251] | substantial body weight reduction |  |
| Cc1c(C(=O)NN2CCCCC2)nn(-c2ccc(Cl)cc2Cl)c1-c1ccc(Cl)cc1 [SR-141716] |  | dose-dependently reduced body weight |
